According to patent US20080119412A1, “Polypeptides for Modulating Binding of Trp Channel Proteins and Trp- Associated Proteins” (NoNO Inc., priority 2003, published 2008):
Residues, ends and D or L forms follow the SMILES beside them. No end group written: not given here. *: point of attachment. Biotin = O=C1N[C@H]2[C@H](CS[C@H]2CCCCC(=O)*)N1

How the values were obtained:
ZO-1 d2 = molecular target: T1, ZO-1 d2 (Homo sapiens, UniProt Q07157, DEL264-264); assay: G3 assay titration, GST-PDZ fusion / biotinylated peptide; type: binding
T1 construct: made in house; host or cells: E. coli (DH5alpha, BL21 or JM109)
T1 sequence (Q07157 with tags, fused parts or gaps DEL264-264): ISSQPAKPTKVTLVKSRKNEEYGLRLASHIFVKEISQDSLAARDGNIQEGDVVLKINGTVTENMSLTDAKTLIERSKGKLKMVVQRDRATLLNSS
Procedure: (§1) The G3 assay is identical to the G0 assay with the following exceptions. The peptides are typically present at 0.1 μM rather than 20 μM. The peptides are also pre-incubated with the HRP-streptavidin prior to adding to the assay plate. In the G0 assay, free peptide is incubated with the PDZ proteins prior to the addition of the HRP-streptavidin. Thus, for the G0 assay one can lose signal if the bound peptide dissociates from the PDZ protein prior to the addition of the HRP-streptavidin. In the G3 modified assay the HRP-streptavidin/peptide complex is added to the plate in one step, thus increasing the likelihood that all the bound peptide will be bound to HRP-streptavidin. The G3 modified assay increases the chance of observing weak interactions.
(§2) This example describes assays to identify binding between TRPM7 and PDZ domains. GST-PDZ fusions are produced that each contain an entire PDZ domain (or multiple PDZ domains), the collection encompassing approximately 90% of all PDZ domains identified in the human genome. (See Table 5 and Section V (PDZ Proteins and PL Protein Interactions Disclosure). Biotinylated peptide corresponding to 11 residues of Tat coupled to the C-terminal 9 amino acids of TRPM7 ([…]; SEQ ID NO:258) is synthesized and purified by HPLC.
(§3) • Nunc MaxiSorp 96 well Immuno-plate, Nunc • PBS pH 7.4 (phosphate buffered saline, 8 g NaCl, 0.29 g KCl, 1.44 g Na2HPO4, 0.24 g KH2PO4, add H2O to 1 liter and pH 7.4; 0.2 μm filter) • Assay Buffer: 2% BSA in PBS (20 g of bovine serum albumin per liter PBS, fraction V, ICN Biomedicals, cat#IC15142983 • Goat anti-GST polyclonal Ab, stock 5 mg/ml, stored at 4° C., Amersham Pharmacia cat#27-4577-01 • Dilute 1:1000 in PBS, final concentration 5 μg/ml. • HRP-Streptavidin, 2.5 mg/2 ml stock stored at 4° C., Zymed cat#43-4323, dilute 1:2000 into Assay buffer, final concentration of […] • Wash Buffer, PBS • Biotinylated peptides (HPLC purified, stock solution stored in −20° C. freezer) • GST-PRISM proteins (stock stored at −80° C., after 1st thaw store in −10° C. freezer) • TMB (3,3′,5,5′, teramethylbensidine), tablets, Sigma cat.#T5525 • Per plate, dissolve 1 tablet in 1 ml DMSO, add 9 ml Citrate/Phosphate buffer pH 5.4 and 2 μL H2O2 • 0.1 M H2SO4, Sigma cat.#S1526 • 12-w multichannel pipettor & tips • 50 ml reagent reservoirs, Costar#4870 • 50, 15 ml polypropylene conical tubes • Costar Transtar 96 Costar #7605 • Transtar 96 Cartridge Costar #7610 • Molecular Devices microplate reader (450 & 650 nm filters) with SoftMax Pro software *When using reagents stored at or 4° C. or −20° C., remove & keep on ice
(§4) • 1. Coat plate with 100 μl of 5 μg/ml anti-GST, overnight at 4° C. • 2. Dump contents of plate & out tap dry on paper towels • 3. Block with 200 μl Assay Buffer for 2 hrs at room temperature • 4. Prepare proteins at 5 μg/ml in Assay Buffer • 5. Wash 3× with cold PBS (4° C.), avoiding letting the plates dry out • 6. Add proteins at 50 μl per well, incubate 1 to 2 hrs at 4° C. • 7. Prepare peptides to desired concentration in Assay Buffer • 8. Wash 3× with cold PBS (4° C.), avoiding letting the plates dry out • 9. Add HRP-Streptavidin/peptide complex [prepared by incubating for 20 minutes at room temperature HRP-Streptavidin (1:2000) with the desired biotin-peptide concentration for 20 minutes at room temperature] at 50 μl per well on ice • 10. Place at room temperature for exactly 30 minutes • 11. Promptly wash 5× with PBS at room temperature • 12. Add 100 μl/well TMB substrate (write time on plate) • 13. Incubate in dark at room temperature for a maximum of 30 minutes • 14. Read plate at 25 minutes (650 nm), optional • 15. Stop reaction with 100 μl of 0.18 M H2SO4, 30 minutes after adding TMB • Take last reading at 450 nm soon after stopping reaction
(§5) The G3 assay was performed using 0.1 μM peptide representing 11 amino acids of Tat fused to the final 9 amino acids of TRPM7 ([…]; SEQ ID NO:258). […]

INADL d3 = molecular target: T2, INADL d3 (Homo sapiens, UniProt Q8NI35); assay: as above; type: binding
T2 construct: made in house; host or cells: E. coli (DH5alpha, BL21 or JM109)
T2 sequence (Q8NI35 with tags, fused parts or gaps): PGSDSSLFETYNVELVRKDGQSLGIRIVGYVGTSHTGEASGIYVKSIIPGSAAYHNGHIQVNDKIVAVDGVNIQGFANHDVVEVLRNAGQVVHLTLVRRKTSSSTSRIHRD
Procedure: as §1, §2, §3, §4, §5

| Compound | EC50 (ZO-1 d2) | EC50 (INADL d3) | ODmax (450 nm) (INADL d3; Table 10, titration of peptides with INADL d3) |
| --- | --- | --- | --- |
| CC[C@H](C)[C@H](NC(=O)[C@H](CO)NC(=O)[C@@H](NC(=O)[C@H](C)NC(=O)[C@H](C)NC(=O)[C@@H](NC(=O)[C@H](C)NC(=O)[C@H](CCCNC(=N)N)NC(=O)[C@H](CCCNC(=N)N)NC(=O)[C@H](CCCNC(=N)N)NC(=O)[C@H](CCC(N)=O)NC(=O)[C@H](CCCNC(=N)N)NC(=O)[C@H](CCCNC(=N)N)NC(=O)[C@H](CCCCN)NC(=O)[C@H](CCCCN)NC(=O)[C@H](CCCNC(=N)N)NC(=O)CNC(=O)[C@H](Cc1ccc(O)cc1)NC(=O)CCCC[C@@H]1SC[C@@H]2NC(=O)N[C@@H]21)C(C)C)[C@@H](C)O)C(=O)N[C@@H](CC(N)=O)C(=O)N[C@@H](CC(C)C)C(=O)O [Peptide 1791] (Biotin-YGRKKRRQRRRAVAATSINL-OH) | < 0.1 µM |  |  |
| CC[C@H](C)[C@H](NC(=O)[C@@H](NC(=O)[C@H](CCCNC(=N)N)NC(=O)[C@H](CC(=O)O)NC(=O)[C@H](CO)NC(=O)[C@H](CCCNC(=N)N)NC(=O)[C@H](C)NC(=O)[C@H](CCCNC(=N)N)NC(=O)[C@H](CCCNC(=N)N)NC(=O)[C@H](CCCNC(=N)N)NC(=O)[C@H](CCC(N)=O)NC(=O)[C@H](CCCNC(=N)N)NC(=O)[C@H](CCCNC(=N)N)NC(=O)[C@H](CCCCN)NC(=O)[C@H](CCCCN)NC(=O)[C@H](CCCNC(=N)N)NC(=O)CNC(=O)[C@H](Cc1ccc(O)cc1)NC(=O)CCCC[C@@H]1SC[C@@H]2NC(=O)N[C@@H]21)[C@@H](C)O)C(=O)N[C@H](C(=O)N[C@@H](C)C(=O)O)[C@@H](C)CC [Peptide 1830] (Biotin-YGRKKRRQRRRARSDRTIIA-OH) | < 0.02 µM | < 2 µM |  |
| CC[C@H](C)[C@H](NC(=O)[C@H](CCCCN)NC(=O)[C@H](CCCNC(=N)N)NC(=O)[C@H](CC(=O)O)NC(=O)CNC(=O)[C@H](CCCNC(=N)N)NC(=O)[C@H](C)NC(=O)[C@H](CCCNC(=N)N)NC(=O)[C@H](CCCNC(=N)N)NC(=O)[C@H](CCCNC(=N)N)NC(=O)[C@H](CCC(N)=O)NC(=O)[C@H](CCCNC(=N)N)NC(=O)[C@H](CCCNC(=N)N)NC(=O)[C@H](CCCCN)NC(=O)[C@H](CCCCN)NC(=O)[C@H](CCCNC(=N)N)NC(=O)CNC(=O)[C@H](Cc1ccc(O)cc1)NC(=O)CCCC[C@@H]1SC[C@@H]2NC(=O)N[C@@H]21)C(=O)N[C@@H](CCCNC(=N)N)C(=O)N[C@H](C(=O)O)C(C)C [Peptide 1836] (Biotin-YGRKKRRQRRRARGDRKIRV-OH) | < 0.01 µM |  |  |
| CC(C)[C@H](NC(=O)[C@H](CCC(=O)O)NC(=O)[C@@H](NC(=O)[C@H](CCCCN)NC(=O)[C@H](CCCNC(=N)N)NC(=O)[C@H](CC(=O)O)NC(=O)[C@@H](NC(=O)[C@H](CCCNC(=N)N)NC(=O)[C@H](C)NC(=O)[C@H](CCCNC(=N)N)NC(=O)[C@H](CCCNC(=N)N)NC(=O)[C@H](CCCNC(=N)N)NC(=O)[C@H](CCC(N)=O)NC(=O)[C@H](CCCNC(=N)N)NC(=O)[C@H](CCCNC(=N)N)NC(=O)[C@H](CCCCN)NC(=O)[C@H](CCCCN)NC(=O)[C@H](CCCNC(=N)N)NC(=O)CNC(=O)[C@H](Cc1ccc(O)cc1)NC(=O)CCCC[C@@H]1SC[C@@H]2NC(=O)N[C@@H]21)[C@@H](C)O)C(C)C)C(=O)O [Peptide 1837] (Biotin-YGRKKRRQRRRARTDRKVEV-OH) | < 0.02 µM |  |  |
| CC[C@H](C)[C@H](NC(=O)[C@H](Cc1ccc(O)cc1)NC(=O)[C@H](CCCCN)NC(=O)[C@H](CCCNC(=N)N)NC(=O)[C@H](CC(=O)O)NC(=O)CNC(=O)[C@H](CCCNC(=N)N)NC(=O)[C@H](C)NC(=O)[C@H](CCCNC(=N)N)NC(=O)[C@H](CCCNC(=N)N)NC(=O)[C@H](CCCNC(=N)N)NC(=O)[C@H](CCC(N)=O)NC(=O)[C@H](CCCNC(=N)N)NC(=O)[C@H](CCCNC(=N)N)NC(=O)[C@H](CCCCN)NC(=O)[C@H](CCCCN)NC(=O)[C@H](CCCNC(=N)N)NC(=O)CNC(=O)[C@H](Cc1ccc(O)cc1)NC(=O)CCCC[C@@H]1SC[C@@H]2NC(=O)N[C@@H]21)C(=O)N[C@H](C(=O)O)C(C)C [Peptide 1838] (Biotin-YGRKKRRQRRRARGDRKYIV-OH) | < 0.1 µM | < 0.1 µM |  |
| CC(C)[C@H](NC(=O)[C@@H]1CCCN1C(=O)[C@@H](NC(=O)[C@H](CCCCN)NC(=O)[C@H](CCCNC(=N)N)NC(=O)[C@H](CC(=O)O)NC(=O)CNC(=O)[C@H](CCCNC(=N)N)NC(=O)[C@H](C)NC(=O)[C@H](CCCNC(=N)N)NC(=O)[C@H](CCCNC(=N)N)NC(=O)[C@H](CCCNC(=N)N)NC(=O)[C@H](CCC(N)=O)NC(=O)[C@H](CCCNC(=N)N)NC(=O)[C@H](CCCNC(=N)N)NC(=O)[C@H](CCCCN)NC(=O)[C@H](CCCCN)NC(=O)[C@H](CCCNC(=N)N)NC(=O)CNC(=O)[C@H](Cc1ccc(O)cc1)NC(=O)CCCC[C@@H]1SC[C@@H]2NC(=O)N[C@@H]21)C(C)C)C(=O)O [Peptide 1841] (Biotin-YGRKKRRQRRRARGDRKVPV-OH) | < 0.02 µM |  |  |
| CC(C)C[C@H](NC(=O)[C@H](CCCNC(=N)N)NC(=O)[C@@H](NC(=O)CNC(=O)[C@H](CCCNC(=N)N)NC(=O)[C@H](C)NC(=O)[C@H](CCCNC(=N)N)NC(=O)[C@H](CCCNC(=N)N)NC(=O)[C@H](CCCNC(=N)N)NC(=O)[C@H](CCC(N)=O)NC(=O)[C@H](CCCNC(=N)N)NC(=O)[C@H](CCCNC(=N)N)NC(=O)[C@H](CCCCN)NC(=O)[C@H](CCCCN)NC(=O)[C@H](CCCNC(=N)N)NC(=O)CNC(=O)[C@H](Cc1ccc(O)cc1)NC(=O)CCCC[C@@H]1SC[C@@H]2NC(=O)N[C@@H]21)[C@@H](C)O)C(=O)N[C@H](C(=O)N[C@@H](Cc1c[nH]c2ccccc12)C(=O)N[C@H](C(=O)O)C(C)C)C(C)C [Peptide 1844] (Biotin-YGRKKRRQRRRARGTRLVWV-OH) | < 0.02 µM | < 0.02 µM |  |
| CC(C)[C@H](NC(=O)[C@H](Cc1c[nH]c2ccccc12)NC(=O)[C@@H](NC(=O)[C@H](CCC(=O)O)NC(=O)[C@H](CCCNC(=N)N)NC(=O)[C@H](CCCNC(=N)N)NC(=O)CNC(=O)[C@H](CCCNC(=N)N)NC(=O)[C@H](C)NC(=O)[C@H](CCCNC(=N)N)NC(=O)[C@H](CCCNC(=N)N)NC(=O)[C@H](CCCNC(=N)N)NC(=O)[C@H](CCC(N)=O)NC(=O)[C@H](CCCNC(=N)N)NC(=O)[C@H](CCCNC(=N)N)NC(=O)[C@H](CCCCN)NC(=O)[C@H](CCCCN)NC(=O)[C@H](CCCNC(=N)N)NC(=O)CNC(=O)[C@H](Cc1ccc(O)cc1)NC(=O)CCCC[C@@H]1SC[C@@H]2NC(=O)N[C@@H]21)[C@@H](C)O)C(=O)O [Peptide 1854] (Biotin-YGRKKRRQRRRARGRRETWV-OH) |  | < 0.02 µM |  |
| Biotin-YGRKKRRQRRRSRTDRLEYV [Peptide 1846] |  |  | 1.50 |
